Reference: patent publication US20070053985A1, “Coenzyme Q10-containing fine particle with excellent dispersibility” (KANEKA CORPORATION, priority 2005, published 2007)

Assays:
[1] = Dispersibility in water, mixture stirred violently; assay type: physicochemical; details: 5 mg added into 100 mL of water, stirring violently
Procedure: Oxidized coenzyme Q10 crystals (5 mg) or reduced coenzyme Q10 crystals (5 mg) as obtained in the Production Example 1 was added into 100 mL of water, and each mixture was then stirring violently. In the both mixtures, one part of fine particles adhered to the wall of vessel, and another part thereof formed lumps of particles floated on the water surface.

[2] = Adhesion of particles to the wall of a glass sample bottle on shaking; assay type: physicochemical; details: 500 mg in a 10-mL glass sample bottle, shaken
Procedure: Fine particles as obtained in Example 4 (500 mg) was placed in a 10-mL glass sample bottle, and then shaken.
Reduced coenzyme Q10 crystals as obtained in Production Example 1 (500 mg) was placed in a 10-mL glass sample bottle, and then shaken in the same manner as Example 8.

Q: Which dispersibility in water [1] does the source give for `COc1c(O)c(C)c(C/C=C(\C)CC/C=C(\C)CC/C=C(\C)CC/C=C(\C)CC/C=C(\C)CC/C=C(\C)CC/C=C(\C)CC/C=C(\C)CC/C=C(\C)CCC=C(C)C)c(O)c1OC` [reduced coenzyme Q10 crystals, reduced coenzyme Q10] here?
A: the particles were not dispersed easily

Q: What about the “adhesion to the wall of bottle” value [2] of the same molecule?
A: most of the crystals were adhered to the wall

Q: Which dispersibility in water [1] does the source give for `COC1=C(OC)C(=O)C(C/C=C(\C)CC/C=C(\C)CC/C=C(\C)CC/C=C(\C)CC/C=C(\C)CC/C=C(\C)CC/C=C(\C)CC/C=C(\C)CC/C=C(\C)CCC=C(C)C)=C(C)C1=O` [Oxidized coenzyme Q10 crystals, Oxidized coenzyme Q10] here?
A: the particles were not dispersed easily
